In paper PMC10820528, “New Rare Triterpene Glycosides from Pacific Sun Star, Solaster pacificus, and Their Anticancer Activity” (Marine Drugs, 2023):
Where two headings read alike, the source gives them in different places.

Key:
[1] = test system: RPMI-7951 cells; conditions: non-toxic concentration; cited from earlier work
[2] = test system: MDA-MB-231 cells; conditions: non-toxic concentration; cited from earlier work
[3] = test system: HT-29 cells; conditions: non-toxic concentration; cited from earlier work
[4] = test system: human embryonic kidney HEK 293 cells; assay: cells; format: cell-based; conditions: for IC50: read-out: IC50, HEK 293
Experimental: (§1) We calculated the inhibiting concentration that cause death of 50% of cells (IC50) and the selectivity index (SI) of the compounds tested (Table 4).
(§2) The human embryonic kidney HEK 293 cells (ATCC® CRL-1573™), breast cancer MDA-MB-231 cells (ATCC® HTB-26™), and colorectal carcinoma HCT 116 cells (ATCC® CCL-247™) were purchased from the American Type Culture Collection (Manassas, VA, USA). The HEK 293 and MDA-MB-231 cells were cultured in DMEM; the HCT 116 cells were cultured in the McCoy’s 5A medium at 37 °C in a humidified atmosphere containing 5% CO2. The culture media were supplemented with 10% heat-inactivated FBS and a 1% penicillin/streptomycin solution. The number of passages was carefully controlled, and contamination by Mycoplasma was monitored on a regular basis.
(§3) Compounds 1–3, and 6–8 were dissolved in sterile dimethyl sulfoxide (DMSO), to prepare stock concentrations of 20 mM. Cells were treated with serially diluted 1–3, 6–8 (0.3–100 µM) (with the culture medium used as diluent) (the final concentration of DMSO was less than 0.5%). The vehicle control was the cells treated with an equivalent volume of DMSO (the final concentration was less than 0.5%) for all of the presented experiments.
(§4) HEK 293 (1.0 × 10^4/200 µL), HCT 116 (1.0 × 10^4/200 µL), and MDA-MB-231 (0.8 × 10^4/200 µL) cells were seeded in a 96-well plate and incubated for 24 h at 37 °C in a CO2 incubator. […] The cells were subsequently incubated with 15 µL of the MTS reagent for 3 h. The absorbance of each well was measured at 490/630 nm on a Power Wave XS microplate reader (BioTek, Winooski, VT, USA).
(§5) The IC50 concentration was calculated using the AAT-Bioquest® online calculator [24]. The selectivity index (SI) was calculated as described previously, using the following formula: SI = IC50 of the compounds for normal cells (HEK 293) divided by IC50 of the same compounds for the human colorectal adenocarcinoma and breast cancer (HCT 116 and MDA-MB-231) cell lines.

[5] = test system: breast cancer MDA-MB-231 cells; assay: cells; format: cell-based; conditions: for IC50: read-out: IC50, MDA-MB-231
Experimental: as §1, §2, §3, §4, §5

[6] = test system: colorectal carcinoma HCT 116 cells; assay: cells; format: cell-based; conditions: for IC50: Homo sapiens, read-out: IC50, HCT 116
Experimental: We determined the cytotoxicity of compounds 1–3 and 6–8 against human embryonic kidney HEK 293, colorectal carcinoma HCT 116, and breast cancer MDA-MB-231 cells by the MTS assay, after 24 h of treatment with the compounds. We calculated the inhibiting concentration that cause death of 50% of cells (IC50) and the selectivity index (SI) of the compounds tested (Table 4).
as §2, §3, §4, §5

[7] = test system: JB6 Cl41 cells; design: method as in PMID 35323516; conditions: induced by chemical carcinogens (EGF and TPA) or ionizing radiation (X-rays and UVB), non-toxic concentrations; cited from earlier work
[8] = test system: SK-MEL-2 cancer cells; design: method as in PMID 35323516; conditions: non-toxic concentrations; cited from earlier work
[9] = Homo sapiens, HEK293, MTS assay, 24 h of cell incubation, mean ± SD
[10] = Homo sapiens, MDA-MB-231, MTS assay, 24 h of cell incubation, mean ± SD
[11] = HCT-116, MTS assay, 24 h of cell incubation, mean ± SD
[12] = MTS assay, cisplatin, 48 h of cell incubation, mean ± SD

Question: Which “colony formation of RPMI-7951 cells” value [1] does the source give for COC1C(O)COC(OC2C(O)C(CO)OC(OC3C(C)OC(OC4C(OC5CCC6(C)C7CCC89C(=O)OC(C)(/C=C/C=C(C)C)C8C(OC(C)=O)CC9(C)C7=CCC6C5(C)C)OCC(O)C4O)C(OC4OCC(O)C(O)C4O)C3O)C2O)C1O (centres unmarked) [cucumarioside C2] here?
Answer: almost completely suppress

Question: And the “colony formation of MDA-MB-231 cells” value [2]?
Answer: almost completely suppress

Question: And the “colony formation of HT-29 cells” value [3]?
Answer: almost completely suppress

Question: Which results are given for CO[C@@H]1[C@@H](O)[C@H](O[C@@H]2[C@@H](O)[C@H](O[C@H]3[C@H](O)[C@@H](O)[C@H](O[C@H]4[C@H](O[C@H]5CC[C@]6(C)C7=C(CC[C@H]6C5(C)C)[C@]5(C)C[C@H](O)[C@H]([C@@](C)(O)CCC=C(C)C)[C@@]5(CO)CC7)OC[C@@H](O)[C@@H]4O)O[C@@H]3C)O[C@H](CO)[C@H]2O)OC[C@H]1O [Compound 3, (20S)-3β-O-[3-O-methyl-β-D-xylopyranosyl-(1→3)-β-D-glucopyranosyl-(1→4)-β-D-quinovopyranosyl-(1→2)-β-D-xylopyranosyl]-16β,18,20-trihydroxy-5α-lanosta-8(9),24-diene]?
Answer: cytotoxic activity in words, HEK 293 [4]: Moderate; IC50 [4, 9]: 52.8 ± 0.8 µM; cytotoxic activity in words, MDA-MB-231 [5]: Moderate; IC50 [5, 10]: 36.7 ± 3.3 µM; SI (selectivity index), MDA-MB-231 ([5]; mean IC50 against normal cells (HEK 293)/mean IC50 against MDA-MB-231, 24 h): 1.4; cytotoxic activity in words, HCT 116 [6]: Moderate; IC50 [6, 11]: 42.2 ± 0.4 µM; SI (selectivity index), HCT 116 ([6]; mean IC50 against normal cells (HEK 293)/mean IC50 against HCT 116, 24 h): 1.25

Question: With CC(=O)OC1CC2(C)C3=CCC4C(C)(C)C(OC5OCC(O)C(O)C5OC5OC(C)C(O)C(O)C5OC5OCC(O)C(O)C5O)CCC4(C)C3CCC23C(=O)OC(C)(C=CC=C(C)C)C13 (centres unmarked) [Compound 7, cucumarioside B1] as the compound, how does the IC50 ([4]; Homo sapiens, HEK293, 24 h) read?
Answer: 28.5 ± 1.5 µM

Question: And the IC50 ([5]; Homo sapiens, MDA-MB-231, 24 h)?
Answer: 34 ± 2.9 µM

Question: What about the IC50 ([6]; HCT-116, 24 h) of the same compound?
Answer: 35.6 ± 0.6 µM

Question: Which IC50 ([4]; Homo sapiens, HEK293, 24 h) does the source give for COC1C(O)COC(OC2C(O)C(CO)OC(OC3C(C)OC(OC4C(OC5CCC6(C)C7CCC89C(=O)OC(C)(C=CC=C(C)C)C8C(OC(C)=O)CC9(C)C7=CCC6C5(C)C)OCC(O)C4O)C(O)C3O)C2O)C1O (centres unmarked) [Compound 8, cucumarioside A5] here?
Answer: 6.2 ± 0.7 µM

Question: What about the IC50 ([5]; Homo sapiens, MDA-MB-231, 24 h) of the same compound?
Answer: 13.1 ± 4.2 µM

Question: What about the IC50 ([6]; HCT-116, 24 h) of the same compound?
Answer: 11.4 ± 2.7 µM

Question: With CO[C@@H]1[C@@H](O)[C@H](O[C@@H]2[C@@H](O)[C@H](O[C@H]3[C@H](O)[C@@H](O[C@@H]4OC[C@@H](O)[C@H](O)[C@H]4O)[C@H](O[C@H]4[C@H](O[C@H]5CC[C@]6(C)[C@@H]7CCC89C(=O)O[C@@](C)(/C=C/C=C(C)C)[C@H]8[C@@H](OC(C)=O)C[C@@]9(C)C7=CC[C@H]6C5(C)C)OC[C@@H](O)[C@@H]4O)O[C@@H]3C)O[C@H](CO)[C@H]2O)O[C@H](CO)[C@H]1O (some centres unmarked) [pacificusoside D] as the compound, how does the “neoplastic transformation of JB6 Cl41 cells” value [7] read?
Answer: significantly inhibit

Question: And the “colony formation of SK-MEL-2 cancer cells” value [8]?
Answer: highest inhibiting effect

Question: For pacificusoside C, which “colony formation of RPMI-7951 cells” value [1] is on record?
Answer: almost completely suppress

Question: And the “colony formation of MDA-MB-231 cells” value [2]?
Answer: almost completely suppress

Question: And the “colony formation of HT-29 cells” value [3]?
Answer: almost completely suppress

Question: Which results are given for CO[C@@H]1[C@@H](O)[C@H](O[C@@H]2[C@@H](O)[C@H](O[C@H]3[C@H](O)[C@@H](O[C@@H]4OC[C@@H](O)[C@H](O)[C@H]4O)[C@H](O[C@H]4[C@H](O[C@H]5CC[C@]6(C)[C@@H]7CCC89C(=O)O[C@@](C)(/C=C\C=C(C)C)[C@H]8[C@@H](OC(C)=O)C[C@@]9(C)C7=CC[C@H]6C5(C)C)OC[C@@H](O)[C@@H]4O)O[C@@H]3C)O[C@H](CO)[C@H]2O)OC[C@H]1O (some centres unmarked) [cucumarioside C1]?
Answer: colony formation of RPMI-7951 cells [1]: almost completely suppress; colony formation of MDA-MB-231 cells [2]: almost completely suppress; colony formation of HT-29 cells [3]: almost completely suppress

Question: What does the source list for COC1C(O)C(CO)OC(OC2C(O)C(CO)OC(OC3C(C)OC(OC4C(OC5CCC6(C)C7CCC89C(=O)OC(C)(C=CC=C(C)C)C8C(OC(C)=O)CC9(C)C7=CCC6C5(C)C)OCC(O)C4O)C(OC4OCC(O)C(O)C4O)C3O)C2O)C1O (centres unmarked) [cucumarioside D]?
Answer: neoplastic transformation of JB6 Cl41 cells [7]: significantly inhibit; colony formation of SK-MEL-2 cancer cells [8]: highest inhibiting effect

Question: For N.N.[Cl][Pt][Cl] [Cisplatin, cisplatin, reference compound], which IC50 [4, 12] is on record?
Answer: 64.6 ± 1.5 µM

Question: What about the IC50 [5, 12] of the same compound?
Answer: 34.5 ± 0.5 µM

Question: With C=C(C)C1C2CC3(C)C4=CCC5C(C)(C)C(OC6OCC(O)C(O)C6OC6OC(C)C(O)C(O)C6OC6OCC(O)C(O)C6O)CCC5(C)C4CCC13C(=O)O2 [Compound 1, 3β-O-[β-D-xylopyranosyl-(1→2)-β-D-quinovopyranosyl-(1→2)-β-D-xylopyranosyl]-23,24,25,26,27-pentanor-5α-lanosta-7,20(22)-diene-18(16)-lactone] as the compound, how does the IC50 [4, 9] read?
Answer: 27 ± 0.3 µM

Question: And the IC50 [5, 10]?
Answer: 51.2 ± 0.8 µM

Question: And the IC50 [6, 11]?
Answer: 81 ± 3.2 µM

Question: With COC1C(O)COC(OC2C(O)C(CO)OC(OC3C(C)OC(OC4C(OC5CCC6(C)C7=C(CCC6C5(C)C)C5(C)CC(OC(C)=O)C6C(C)(C=CC=C(C)C)OC(=O)C65CC7)OCC(O)C4O)C(O)C3O)C2O)C1O [Compound 6, 3β-O-[3-O-methyl-β-D-xylopyranosyl-(1→3)-β-D-glucopyranosyl-(1→4)-β-D-quinovopyranosyl-(1→2)-β-D-xylopyranosyl]-16β-acetoxyholosta-8(9),22E,24-triene] as the compound, how does the IC50 [4, 9] read?
Answer: 15.3 ± 1.2 µM

Question: And the IC50 [5, 10]?
Answer: 29.8 ± 2.1 µM

Question: What about the IC50 [6, 11] of the same compound?
Answer: 25.5 ± 1.4 µM
